According to patent US12692238B2, “Substituted pyridazinone herbicides” (FMC CORPORATION, priority 2020, dated 2026):

How the values were obtained:
Format in all cases: in vivo
[1] = system: goosegrass (Eleusine indica); assay: Test A postemergence, goosegrass; conditions: 10 days
Description: (§1) Seeds of plant species selected from barnyardgrass (Echinochloa crus-galli), blackgrass (Alopecurus myosuroides), corn (Zea mays), foxtail, giant (giant foxtail, Setaria faberi), foxtail, green (green foxtail, Setaria viridis), goosegrass (Eleusine indica), kochia (Bassia scoparia), oat, wild (wild oat, Avena fatua), palmer amaranth (pigweed, palmer, Amaranthus palmeri), redroot pigweed (Amaranthus retroflexus), ragweed (common ragweed, Ambrosia artemisiifolia), ryegrass, Italian (Italian ryegrass, Lolium multiflorum), and soybean (Glycine max) were planted into a blend of loam soil and sand and treated preemergence with a directed soil spray using test chemicals formulated in a non-phytotoxic solvent mixture which included a surfactant.
(§2) At the same time, plants selected from these crop and weed species and also wheat (Triticum aestivum), galium (catchweed bedstraw, Galium aparine) and horseweed (Erigeron canadensis) were planted in pots containing the same blend of loam soil and sand and treated with postemergence applications of test chemicals formulated in the same manner. Plants ranged in height from 2 to 10 cm and were in the one- to two-leaf stage for the postemergence treatment. Treated plants and untreated controls were maintained in a greenhouse for 10 days, after which time all treated plants were compared to untreated controls and visually evaluated for injury. Plant response ratings, summarized in Table A, are based on a 0 to 100 scale where 0 is no effect and 100 is complete control. A dash (-) response means no test result.

rice (Oryza sativa) = assay: Test B flooded paddy test, rice; conditions: 250 g ai/ha, Flood; visually evaluated after 10 to 14 days
Summary of the method: (§3)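 Application into floodwater (3 cm over soil) at the 2-leaf stage, with the depth held constant, followed by greenhouse growth for 10–14 days. Percent control was estimated visually versus controls, where 100 is complete control.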

[2] = system: ragweed (common ragweed, Ambrosia artemisiifolia); assay: Test A postemergence, ragweed; conditions: 10 days
Summary of the method: (§4)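 Visual injury rating on a 0–100 scale (100 = complete control) versus untreated plants after 10 days in greenhouse. Treatments: directed soil spray preemergence after sowing in loam/sand, or postemergence on one- to two-leaf plants 2–10 cm high; surfactant-containing non-phytotoxic solvent formulation.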

[3] = system: ryegrass, Italian (Italian ryegrass, Lolium multiflorum); assay: Test A postemergence, ryegrass, Italian; conditions: 10 days
Summary of the method: as §4

[4] = system: barnyardgrass (Echinochloa crus-galli); assay: Test B flooded paddy test, barnyardgrass; conditions: 250 g ai/ha, Flood; visually evaluated after 10 to 14 days
Summary of the method: as §3

soybean (Glycine max) [5] = assay: Test A preemergence, soybean; conditions: 0 to 100 scale, 10 days
Description: as §1, §2

corn (Zea mays) [6] = assay: Test A postemergence, corn; conditions: 10 days
Summary of the method: as §4

[7] = system: galium (catchweed bedstraw, Galium aparine); assay: Test A postemergence, galium; conditions: 10 days
Summary of the method: as §4

[8] = system: oat, wild (wild oat, Avena fatua); assay: Test A postemergence, oat, wild; conditions: 10 days
Description: as §1, §2

[9] = system: blackgrass (Alopecurus myosuroides); assay: Test A postemergence, blackgrass; conditions: 10 days
Summary of the method: as §4

[10] = system: wheat (Triticum aestivum); assay: Test A preemergence, wheat; conditions: 125 g ai/ha, 0 to 100 scale, 10 days
[11] = system: ducksalad (Heteranthera limosa); assay: Test B flooded paddy test, ducksalad; conditions: 250 g ai/ha, Flood; visually evaluated after 10 to 14 days
Summary of the method: as §3

[12] = system: goosegrass (Eleusine indica); assay: Test A preemergence, goosegrass; conditions: 0 to 100 scale, 10 days
Description: as §1, §2

[13] = system: ryegrass, Italian (Italian ryegrass, Lolium multiflorum); assay: Test A preemergence, ryegrass, Italian; conditions: 0 to 100 scale, 10 days
Summary of the method: as §4

[14] = system: foxtail, giant (giant foxtail, Setaria faberi); assay: Test A preemergence, foxtail, giant; conditions: 0 to 100 scale, 10 days
Summary of the method: as §4

[15] = system: oat, wild (wild oat, Avena fatua); assay: Test A preemergence, oat, wild; conditions: 0 to 100 scale, 10 days
Description: as §1, §2

[16] = system: ragweed (common ragweed, Ambrosia artemisiifolia); assay: Test A preemergence, ragweed; conditions: 0 to 100 scale, 10 days
Summary of the method: as §4

[17] = system: wheat (Triticum aestivum); assay: Test A postemergence, wheat; conditions: 10 days
Summary of the method: as §4

[18] = system: sedge, umbrella (small-flower umbrella sedge, Cyperus difformis); assay: Test B flooded paddy test, sedge, umbrella; conditions: 250 g ai/ha, Flood; visually evaluated after 10 to 14 days
Summary of the method: as §3

[19] = system: palmer amaranth (pigweed, palmer, Amaranthus palmeri); assay: Test A postemergence, palmer amaranth; conditions: 10 days
Description: as §1, §2

kochia (Bassia scoparia) [20] = assay: Test A postemergence, kochia; conditions: 10 days
Summary of the method: as §4

[21] = system: palmer amaranth (pigweed, palmer, Amaranthus palmeri); assay: Test A preemergence, palmer amaranth; conditions: 0 to 100 scale, 10 days
Description: as §1, §2

kochia (Bassia scoparia) [22] = assay: Test A preemergence, kochia; conditions: 0 to 100 scale, 10 days
Summary of the method: as §4

[23] = system: blackgrass (Alopecurus myosuroides); assay: Test A preemergence, blackgrass; conditions: 0 to 100 scale, 10 days
Description: as §1, §2

[24] = system: foxtail, giant (giant foxtail, Setaria faberi); assay: Test A postemergence, foxtail, giant; conditions: 10 days
Summary of the method: as §4

soybean (Glycine max) [25] = assay: Test A postemergence, soybean; conditions: 10 days
Description: as §1, §2

[26] = system: horseweed (Erigeron canadensis); assay: Test A postemergence, horseweed; conditions: 10 days
Description: as §1, §2

corn (Zea mays) [27] = assay: Test A preemergence, corn; conditions: 0 to 100 scale, 10 days
Description: as §1, §2

[28] = 31 g ai/ha, postemergence, 0 to 100 scale (0 no effect, 100 complete control)
[29] = Postemergence, 125 g ai/ha, 0 to 100 scale

Cc1cc(C)c2cc3ccccc3c(-c3c(OCOC(=O)C(C)(C)C)c(Cl)nn(C)c3=O)c2c1 [Compound 20]
Plant response rating, Goosegrass [1, 28]: 30
Plant response rating, Goosegrass [1, 29]: 30
Plant response rating, Rice (0 to 100 scale where 0 is no effect and 100 is complete control) (rice (Oryza sativa)): 0
Plant response rating, Ragweed [2, 28]: 70
Plant response rating, Ragweed [2, 29]: 70
Plant response rating, Ryegrass, Italian [3, 28]: 0
Plant response rating, Ryegrass, Italian [3, 29]: 0
Plant response rating, Barnyardgrass (0 to 100 scale where 0 is no effect and 100 is complete control) [4]: 25
Plant response rating, Soybean (soybean (Glycine max) [5]; 31 g ai/ha): 0
Plant response rating, Soybean (soybean (Glycine max) [5]; 125 g ai/ha): 0
Plant response rating, Corn (corn (Zea mays) [6]; [28]): 10
Plant response rating, Corn (corn (Zea mays) [6]; [29]): 20
Plant response rating, Galium [7, 28]: 50
Plant response rating, Galium [7, 29]: 50
Plant response rating, Oat, Wild [8, 28]: 0
Plant response rating, Oat, Wild [8, 29]: 0
Plant response rating, Blackgrass [9, 28]: 0
Plant response rating, Blackgrass [9, 29]: 0
Plant response rating, Wheat [10]: 0
Plant response rating, Ducksalad (0 to 100 scale where 0 is no effect and 100 is complete control) [11]: 100
Plant response rating, Goosegrass ([12]; 31 g ai/ha): 0
Plant response rating, Goosegrass ([12]; 125 g ai/ha): 0
Plant response rating, Ryegrass, Italian ([13]; 31 g ai/ha): 0
Plant response rating, Ryegrass, Italian ([13]; 125 g ai/ha): 0
Plant response rating, Foxtail, Giant ([14]; 31 g ai/ha): 0
Plant response rating, Foxtail, Giant ([14]; 125 g ai/ha): 20
Plant response rating, Oat, Wild ([15]; 31 g ai/ha): 0
Plant response rating, Oat, Wild ([15]; 125 g ai/ha): 0
Plant response rating, Ragweed ([16]; 31 g ai/ha): 0
Plant response rating, Ragweed ([16]; 125 g ai/ha): 50
Plant response rating, Wheat [17, 28]: 0
Plant response rating, Wheat [17, 29]: 0
Plant response rating, Sedge, Umbrella (0 to 100 scale where 0 is no effect and 100 is complete control) [18]: 90
Plant response rating, Pigweed, Palmer [19, 28]: 50
Plant response rating, Pigweed, Palmer [19, 29]: 50
Plant response rating, Kochia (kochia (Bassia scoparia) [20]; [28]): 40
Plant response rating, Kochia (kochia (Bassia scoparia) [20]; [29]): 60
Plant response rating, Pigweed, Palmer ([21]; 31 g ai/ha): 30
Plant response rating, Pigweed, Palmer ([21]; 125 g ai/ha): 60
Plant response rating, Kochia (kochia (Bassia scoparia) [22]; 31 g ai/ha): 0
Plant response rating, Kochia (kochia (Bassia scoparia) [22]; 125 g ai/ha): 0
Plant response rating, Blackgrass ([23]; 31 g ai/ha): 0
Plant response rating, Blackgrass ([23]; 125 g ai/ha): 10
Plant response rating, Foxtail, Giant [24, 28]: 20
Plant response rating, Foxtail, Giant [24, 29]: 30
Plant response rating, Soybean (soybean (Glycine max) [25]; [28]): 0
Plant response rating, Soybean (soybean (Glycine max) [25]; [29]): 0
Plant response rating, Horseweed [26, 28]: 90
Plant response rating, Horseweed [26, 29]: 80
Plant response rating, Corn (corn (Zea mays) [27]; 31 g ai/ha): 0
Plant response rating, Corn (corn (Zea mays) [27]; 125 g ai/ha): 0

Cc1ccc2cc3ccc(F)cc3c(-c3c(OCOC(=O)N(C)C)c(C)nn(C)c3=O)c2c1 [Compound 16]
Plant response rating, Goosegrass [1, 28]: 0
Plant response rating, Goosegrass [1, 29]: 0
Plant response rating, Rice (0 to 100 scale where 0 is no effect and 100 is complete control) (rice (Oryza sativa)): 0
Plant response rating, Ragweed [2, 28]: 10
Plant response rating, Ragweed [2, 29]: 30
Plant response rating, Ryegrass, Italian [3, 28]: 0
Plant response rating, Ryegrass, Italian [3, 29]: 0
Plant response rating, Barnyardgrass (0 to 100 scale where 0 is no effect and 100 is complete control) [4]: 0
Plant response rating, Soybean (soybean (Glycine max) [5]; 31 g ai/ha): 0
Plant response rating, Soybean (soybean (Glycine max) [5]; 125 g ai/ha): 0
Plant response rating, Corn (corn (Zea mays) [6]; [28]): 0
Plant response rating, Corn (corn (Zea mays) [6]; [29]): 0
Plant response rating, Galium [7, 28]: 0
Plant response rating, Galium [7, 29]: 50
Plant response rating, Oat, Wild [8, 28]: 0
Plant response rating, Oat, Wild [8, 29]: 0
Plant response rating, Blackgrass [9, 28]: 0
Plant response rating, Blackgrass [9, 29]: 0
Plant response rating, Wheat [10]: 0
Plant response rating, Ducksalad (0 to 100 scale where 0 is no effect and 100 is complete control) [11]: 0
Plant response rating, Goosegrass ([12]; 31 g ai/ha): 0
Plant response rating, Goosegrass ([12]; 125 g ai/ha): 0
Plant response rating, Ryegrass, Italian ([13]; 31 g ai/ha): 0
Plant response rating, Ryegrass, Italian ([13]; 125 g ai/ha): 0
Plant response rating, Foxtail, Giant ([14]; 31 g ai/ha): 0
Plant response rating, Foxtail, Giant ([14]; 125 g ai/ha): 0
Plant response rating, Oat, Wild ([15]; 31 g ai/ha): 0
Plant response rating, Oat, Wild ([15]; 125 g ai/ha): 0
Plant response rating, Ragweed ([16]; 31 g ai/ha): 0
Plant response rating, Ragweed ([16]; 125 g ai/ha): 0
Plant response rating, Wheat [17, 28]: 0
Plant response rating, Wheat [17, 29]: 0
Plant response rating, Sedge, Umbrella (0 to 100 scale where 0 is no effect and 100 is complete control) [18]: 0
Plant response rating, Pigweed, Palmer [19, 28]: 100
Plant response rating, Pigweed, Palmer [19, 29]: 60
Plant response rating, Kochia (kochia (Bassia scoparia) [20]; [28]): 60
Plant response rating, Kochia (kochia (Bassia scoparia) [20]; [29]): 80
Plant response rating, Pigweed, Palmer ([21]; 31 g ai/ha): 10
Plant response rating, Pigweed, Palmer ([21]; 125 g ai/ha): 0
Plant response rating, Kochia (kochia (Bassia scoparia) [22]; 31 g ai/ha): 0
Plant response rating, Kochia (kochia (Bassia scoparia) [22]; 125 g ai/ha): 0
Plant response rating, Blackgrass ([23]; 31 g ai/ha): 0
Plant response rating, Blackgrass ([23]; 125 g ai/ha): 0
Plant response rating, Foxtail, Giant [24, 28]: 0
Plant response rating, Foxtail, Giant [24, 29]: 20
Plant response rating, Soybean (soybean (Glycine max) [25]; [28]): 10
Plant response rating, Soybean (soybean (Glycine max) [25]; [29]): 30
Plant response rating, Horseweed [26, 28]: 10
Plant response rating, Horseweed [26, 29]: 10
Plant response rating, Corn (corn (Zea mays) [27]; 31 g ai/ha): 0
Plant response rating, Corn (corn (Zea mays) [27]; 125 g ai/ha): 0
